Experiments:
Format in all cases: cell-based
BRG1 = molecular target: T1, BRG1 (Homo sapiens, UniProt P51532); assay: Immunofluorescence assay for BRG1 degradation in SW1573 cells; settings: 20 hours incubation; for DC50: immunofluorescence mean nuclear signal, read-out: BRG1 IF Degradation IC50; for Dmax: SW1573, 20 h, normalized to a known degrader control, read-out: BRG1 IF Degradation Sinf (%)
T1 construct: either BRM primary antibody (Cell signaling Cat #11966) or BRG primary antibody (Abcam, ab 110641); endogenous in cells; host or cells: SW1573
T1 sequence (P51532 whole entry): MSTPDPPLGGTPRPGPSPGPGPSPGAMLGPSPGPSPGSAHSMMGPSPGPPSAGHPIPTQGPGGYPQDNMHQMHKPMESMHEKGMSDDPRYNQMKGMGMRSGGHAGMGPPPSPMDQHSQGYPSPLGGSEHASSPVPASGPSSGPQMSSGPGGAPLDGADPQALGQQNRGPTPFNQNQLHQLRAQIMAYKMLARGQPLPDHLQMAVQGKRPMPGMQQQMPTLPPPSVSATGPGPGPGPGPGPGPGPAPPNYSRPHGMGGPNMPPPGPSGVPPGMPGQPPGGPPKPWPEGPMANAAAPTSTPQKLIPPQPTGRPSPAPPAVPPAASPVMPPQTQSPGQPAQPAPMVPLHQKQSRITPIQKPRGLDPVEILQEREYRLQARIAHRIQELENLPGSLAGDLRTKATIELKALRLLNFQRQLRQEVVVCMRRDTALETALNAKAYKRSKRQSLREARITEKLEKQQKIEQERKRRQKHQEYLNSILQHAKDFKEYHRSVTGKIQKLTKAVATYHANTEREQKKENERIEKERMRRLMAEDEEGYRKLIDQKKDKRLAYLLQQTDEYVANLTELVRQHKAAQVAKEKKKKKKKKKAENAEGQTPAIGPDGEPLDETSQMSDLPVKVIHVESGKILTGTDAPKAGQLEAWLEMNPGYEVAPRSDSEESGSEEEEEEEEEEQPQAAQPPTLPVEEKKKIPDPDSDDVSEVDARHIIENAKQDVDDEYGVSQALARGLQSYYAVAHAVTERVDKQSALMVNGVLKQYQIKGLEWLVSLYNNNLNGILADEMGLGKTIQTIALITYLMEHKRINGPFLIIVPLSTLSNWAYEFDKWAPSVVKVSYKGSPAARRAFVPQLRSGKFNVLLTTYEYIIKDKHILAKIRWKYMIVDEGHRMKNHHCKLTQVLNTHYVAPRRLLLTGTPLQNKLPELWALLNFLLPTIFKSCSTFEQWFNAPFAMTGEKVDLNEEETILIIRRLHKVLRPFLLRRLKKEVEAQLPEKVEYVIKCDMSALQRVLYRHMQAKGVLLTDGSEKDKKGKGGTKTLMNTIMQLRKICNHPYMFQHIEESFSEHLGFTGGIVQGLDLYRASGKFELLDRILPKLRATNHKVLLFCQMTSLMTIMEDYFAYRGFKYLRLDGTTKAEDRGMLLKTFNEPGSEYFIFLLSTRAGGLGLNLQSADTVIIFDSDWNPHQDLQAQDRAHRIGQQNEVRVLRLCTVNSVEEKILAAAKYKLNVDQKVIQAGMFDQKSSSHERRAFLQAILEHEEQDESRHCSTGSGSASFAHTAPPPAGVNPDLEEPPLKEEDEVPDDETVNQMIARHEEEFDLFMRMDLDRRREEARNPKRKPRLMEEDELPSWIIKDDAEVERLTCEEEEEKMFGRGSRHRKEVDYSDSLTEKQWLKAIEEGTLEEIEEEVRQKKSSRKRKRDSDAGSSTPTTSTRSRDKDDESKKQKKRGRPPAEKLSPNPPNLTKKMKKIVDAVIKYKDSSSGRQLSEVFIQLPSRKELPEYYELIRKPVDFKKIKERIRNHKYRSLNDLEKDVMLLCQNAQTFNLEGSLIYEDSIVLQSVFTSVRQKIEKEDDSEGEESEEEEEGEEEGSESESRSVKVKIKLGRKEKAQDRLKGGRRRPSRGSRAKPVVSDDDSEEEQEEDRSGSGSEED
How it was run: (§1)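 SW1573 cells treated with compound for 20 h, then fixed, permeabilized and immunostained for BRM or BRG1 with Hoechst nuclear counterstain. Mean nuclear intensity per cell quantified by high-content imaging; data normalized to a reference degrader control, with floating-maximum curve fits giving IC50 and Dmax.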

BRM [1] = molecular target: T2, BRM (Homo sapiens, UniProt P51531); assay: Immunofluorescence assay for BRM degradation in SW1573 cells; parameters: treated overnight at 4° C. with either BRM primary antibody (Cell signaling Cat #11966) or BRG primary antibody; endogenous in cells; host or cells: SW1573; settings: 20 hours incubation; for DC50: immunofluorescence mean nuclear signal, read-out: BRM IF Degradation IC50; for BRM IF Degradation Sinf (%): normalized to a known degrader control
T2 sequence (P51531 whole entry): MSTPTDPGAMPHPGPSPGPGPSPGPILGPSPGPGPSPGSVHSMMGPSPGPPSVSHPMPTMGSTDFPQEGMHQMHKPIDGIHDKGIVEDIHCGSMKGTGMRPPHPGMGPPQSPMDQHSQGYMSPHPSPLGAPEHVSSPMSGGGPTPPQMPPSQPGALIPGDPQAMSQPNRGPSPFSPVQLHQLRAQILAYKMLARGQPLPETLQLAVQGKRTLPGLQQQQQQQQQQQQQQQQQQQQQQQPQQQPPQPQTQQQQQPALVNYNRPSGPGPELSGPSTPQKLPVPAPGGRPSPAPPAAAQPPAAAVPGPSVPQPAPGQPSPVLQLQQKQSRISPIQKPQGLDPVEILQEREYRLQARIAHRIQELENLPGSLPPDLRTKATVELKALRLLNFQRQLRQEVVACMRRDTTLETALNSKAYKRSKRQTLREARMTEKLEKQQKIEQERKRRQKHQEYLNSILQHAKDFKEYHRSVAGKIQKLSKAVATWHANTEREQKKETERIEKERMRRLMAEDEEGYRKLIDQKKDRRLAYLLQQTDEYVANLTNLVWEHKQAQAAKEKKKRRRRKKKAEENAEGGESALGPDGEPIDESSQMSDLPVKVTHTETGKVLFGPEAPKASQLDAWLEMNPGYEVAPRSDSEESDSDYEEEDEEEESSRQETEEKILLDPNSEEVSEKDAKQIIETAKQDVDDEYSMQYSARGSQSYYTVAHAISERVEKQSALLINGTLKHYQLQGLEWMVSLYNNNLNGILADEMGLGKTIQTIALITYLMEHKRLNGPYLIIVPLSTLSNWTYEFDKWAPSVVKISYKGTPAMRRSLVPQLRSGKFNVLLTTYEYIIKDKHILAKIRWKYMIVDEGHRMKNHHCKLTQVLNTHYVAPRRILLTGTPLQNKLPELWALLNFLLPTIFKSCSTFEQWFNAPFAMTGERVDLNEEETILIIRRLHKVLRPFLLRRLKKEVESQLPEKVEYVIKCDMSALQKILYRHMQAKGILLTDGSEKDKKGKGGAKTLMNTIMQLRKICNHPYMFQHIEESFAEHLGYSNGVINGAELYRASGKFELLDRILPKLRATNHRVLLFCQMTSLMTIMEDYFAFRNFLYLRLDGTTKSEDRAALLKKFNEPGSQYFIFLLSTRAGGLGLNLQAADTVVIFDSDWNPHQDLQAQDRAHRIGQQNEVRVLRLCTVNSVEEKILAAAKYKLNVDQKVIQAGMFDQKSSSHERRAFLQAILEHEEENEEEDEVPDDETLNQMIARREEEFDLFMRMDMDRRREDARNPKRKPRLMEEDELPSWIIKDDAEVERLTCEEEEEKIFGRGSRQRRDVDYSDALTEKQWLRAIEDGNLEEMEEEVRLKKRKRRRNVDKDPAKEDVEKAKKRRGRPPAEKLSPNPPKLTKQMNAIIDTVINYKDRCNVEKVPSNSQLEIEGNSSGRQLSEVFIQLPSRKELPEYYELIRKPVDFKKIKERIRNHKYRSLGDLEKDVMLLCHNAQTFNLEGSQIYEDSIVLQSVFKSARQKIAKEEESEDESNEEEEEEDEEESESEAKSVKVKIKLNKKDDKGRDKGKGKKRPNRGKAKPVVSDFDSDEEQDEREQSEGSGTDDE
How it was run: as §1

BRM [2] = molecular target: T2, BRM; assay: HiBIT nanoluciferase complementation screen for BRM degraders; settings: 18 hours, BRM-HiBIT KI Hela cells, luminescence normalized: DMSO only = 0%, no cells = −100%; for Median HiBiT activity 1 μM: compound 1 μM; for Median HiBiT activity 10 μM: compound 10 μM
Excerpt: Example B-1: HiBIT Nanoluciferase Complementation Screen for BRM Degraders
To assess BRM degradation, compounds were screened for their effect of BRM levels using the HiBIT nanoluciferase complementation strategy developed at Promega. In brief, a HELA cell line that was genetically modified via CRISPR/CAS9 was used to fuse the HiBIT sequence at the 3′ end of BRM (BRM-HiBIT KI Hela). BRM protein levels were then detected using the Nano-Glo HiBIT lytic detection reagent (Promega).
The screened compounds were plated into a white 384-well plate at 10 μM and 1 μM in 25 nL DMSO using an Echo dispenser (Labcyte). BRM-HiBIT KI Hela cells were seeded in the compound plate at 5000 cell per well at 25 μl in DMEM growth media (containing 10% FBS, 1% Glutamax (GIBCO cat #31053-028), lx Penicillin-Streptomycin (ROCHE, cat #1107444001), 4.5 g/L D-Glucose, and no phenol red). After incubation with compounds for 18 hours at 37° C., cell viability was assessed by the addition of 5 μl Cell Titer-Fluor reagent (Promega). After 30 s of mixing on an orbital shaker, and 30 minutes incubation at 37° C., fluorescence was measured with an INFINITE F500 (Tecan) (380-400 nm excitation, 505 nm emission). Next, to assess BRM HiBIT levels, 30 μl of Nano-Glo HiBIT lytic detection reagent (Promega) containing 1:50 Nano-Glo HiBIT lytic substrate and 1:100 LgBIT protein per ml of lytic buffer was added. After shaking on an orbital shaker at 350 rpm for 10 minutes, luminescence was measured on the INFINITE F500 (Tecan). To assess compound effects, luminescence signal was normalized with the mean of wells treated with DMSO only set to 0% and the mean of wells containing no cells set to −100%. Note that, in Table 4, the “Compound Number” corresponds to that used in Table 1.

SMILES: Nc1nnc(-c2ccccc2O)cc1N1CC2CCC(C1)N2c1ccnc(C#CCN2CCCC(N)C2)c1 (stereo not drawn) [Compound 31, 2-(6-amino-5-(8-(2-(3-(3-aminopiperidin-1-yl)prop-1-yn-1-yl)pyridin-4-yl)-3,8-diazabicyclo[3.2.1]octan-3-yl)pyridazin-3-yl)phenol]
- DC50 (BRG1): > 100 nM
- DC50 (BRM [1]): > 100 nM
- Median HiBiT activity 1 μM (BRM [2]): −16.7799%
- Median HiBiT activity 10 μM (BRM [2]): −47.9900%

SMILES: CN(CC#Cc1cc(N2C3CCC2CN(c2cc(-c4ccccc4O)nnc2N)C3)ccn1)CCO [Compound 3, 2-(6-amino-5-(8-(2-(3-((2-hydroxyethyl)(methyl)amino)prop-1-yn-1-yl)pyridin-4-yl)-3,8-diazabicyclo[3.2.1]octan-3-yl)pyridazin-3-yl)phenol]
- DC50 (BRG1): 10 to 100 nM
- Dmax (BRG1): 30 to 70%
- DC50 (BRM [1]): 10 to 100 nM
- BRM IF Degradation Sinf (%) (BRM [1]): E (E indicates −30%-−70%)
- Median HiBiT activity 1 μM (BRM [2]): −68.4262%
- Median HiBiT activity 10 μM (BRM [2]): −39.6172%

SMILES: NCC(=O)NCCCc1cc(N2C3CCC2CN(c2cc(-c4ccccc4O)nnc2N)C3)ccn1 [Compound 32, 2-amino-N-(3-(4-(3-(3-amino-6-(2-hydroxyphenyl)pyridazin-4-yl)-3,8-diazabicyclo[3.2.1]octan-8-yl)pyridin-2-yl)propyl)acetamide]
- DC50 (BRG1): 10 to 100 nM
- Dmax (BRG1): 0 to 30%
- DC50 (BRM [1]): 10 to 100 nM
- BRM IF Degradation Sinf (%) (BRM [1]): E (E indicates −30%-−70%)
- Median HiBiT activity 1 μM (BRM [2]): −16.4623%
- Median HiBiT activity 10 μM (BRM [2]): −30.3732%

SMILES: NCCC#Cc1cc(N2C3CCC2CN(c2cc(-c4ccccc4O)nnc2N)C3)ccn1 [Compound 30, 2-(6-amino-5-(8-(2-(4-aminobut-1-yn-1-yl)pyridin-4-yl)-3,8-diazabicyclo[3.2.1]octan-3-yl)pyridazin-3-yl)phenol]
- DC50 (BRG1): > 100 nM
- Dmax (BRG1): 0 to 30%
- DC50 (BRM [1]): > 100 nM
- BRM IF Degradation Sinf (%) (BRM [1]): E (E indicates −30%-−70%)
- Median HiBiT activity 1 μM (BRM [2]): −18.8155%
- Median HiBiT activity 10 μM (BRM [2]): −47.5549%

SMILES: Nc1nnc(-c2ccccc2O)cc1N1CC2CCC(C1)N2c1ccnc(C#C[C@H]2CC[C@H](N)CC2)c1 [Compound 29, 2-(6-amino-5-(8-(2-(((1r,4r)-4-aminocyclohexyl)ethynyl)pyridin-4-yl)-3,8-diazabicyclo[3.2.1]octan-3-yl)pyridazin-3-yl)phenol]
- DC50 (BRG1): > 100 nM
- DC50 (BRM [1]): > 100 nM
- Median HiBiT activity 1 μM (BRM [2]): −22.4859%
- Median HiBiT activity 10 μM (BRM [2]): −33.4085%

SMILES: Nc1nnc(-c2ccccc2O)cc1N1CC2CCC(C1)N2c1ccnc(C#CC2CNCCO2)c1 (stereo not drawn) [Compound 7, 2-(6-amino-5-(8-(2-(morpholin-2-ylethynyl)pyridin-4-yl)-3,8-diazabicyclo[3.2.1]octan-3-yl)pyridazin-3-yl)phenol]
- DC50 (BRG1): > 100 nM
- DC50 (BRM [1]): < 10 nM
- BRM IF Degradation Sinf (%) (BRM [1]): E (E indicates −30%-−70%)
- Median HiBiT activity 1 μM (BRM [2]): −56.5569%
- Median HiBiT activity 10 μM (BRM [2]): −25.5864%

SMILES: CCN(CC)CC#Cc1cc(N2C3CCC2CN(c2cc(-c4ccccc4O)nnc2N)C3)ccn1 [Compound 5, 2-(6-amino-5-(8-(2-(3-(diethylamino)prop-1-yn-1-yl)pyridin-4-yl)-3,8-diazabicyclo[3.2.1]octan-3-yl)pyridazin-3-yl)phenol]
- DC50 (BRG1): < 10 nM
- Dmax (BRG1): 30 to 70%
- DC50 (BRM [1]): < 10 nM
- BRM IF Degradation Sinf (%) (BRM [1]): E (E indicates −30%-−70%)
- Median HiBiT activity 1 μM (BRM [2]): −63.6385%
- Median HiBiT activity 10 μM (BRM [2]): −31.0597%

SMILES: Nc1nnc(-c2ccccc2O)cc1N1CC2CCC(C1)N2c1ccnc(C#CCN2CCNCC2=O)c1 [Compound 10, 1-(3-(4-(3-(3-amino-6-(2-hydroxyphenyl)pyridazin-4-yl)-3,8-diazabicyclo[3.2.1]octan-8-yl)pyridin-2-yl)prop-2-yn-1-yl)piperazin-2-one]
- DC50 (BRG1): > 100 nM
- DC50 (BRM [1]): 10 to 100 nM
- BRM IF Degradation Sinf (%) (BRM [1]): E (E indicates −30%-−70%)
- Median HiBiT activity 1 μM (BRM [2]): −50.554%
- Median HiBiT activity 10 μM (BRM [2]): −56.7556%

SMILES: NCCCc1cc(N2C3CCC2CN(c2cc(-c4ccccc4O)nnc2N)C3)ccn1 [Compound 33, 2-(6-amino-5-(8-(2-(3-aminopropyl)pyridin-4-yl)-3,8-diazabicyclo[3.2.1]octan-3-yl)pyridazin-3-yl)phenol]
- DC50 (BRG1): > 100 nM
- Dmax (BRG1): 30 to 70%
- DC50 (BRM [1]): > 100 nM
- BRM IF Degradation Sinf (%) (BRM [1]): E (E indicates −30%-−70%)
- Median HiBiT activity 1 μM (BRM [2]): −14.8996%
- Median HiBiT activity 10 μM (BRM [2]): −55.0132%

SMILES: Nc1nnc(-c2ccccc2O)cc1N1CC2CCC(C1)N2c1ccnc(C#CCCCCO)c1 [Compound 27, 2-(6-amino-5-(8-(2-(6-hydroxyhex-1-yn-1-yl)pyridin-4-yl)-3,8-diazabicyclo[3.2.1]octan-3-yl)pyridazin-3-yl)phenol]
- DC50 (BRG1): > 100 nM
- DC50 (BRM [1]): > 100 nM
- BRM IF Degradation Sinf (%) (BRM [1]): D (D indicates 0-−30%)
- Median HiBiT activity 1 μM (BRM [2]): −23.7734%
- Median HiBiT activity 10 μM (BRM [2]): −28.4819%

SMILES: Nc1nnc(-c2ccccc2O)cc1N1CC2CCC(C1)N2c1ccnc(C#CC2CNC2)c1 [Compound 6, 2-(6-amino-5-(8-(2-(azetidin-3-ylethynyl)pyridin-4-yl)-3,8-diazabicyclo[3.2.1]octan-3-yl)pyridazin-3-yl)phenol]
- DC50 (BRG1): > 100 nM
- Dmax (BRG1): 0 to 30%
- DC50 (BRM [1]): 10 to 100 nM
- BRM IF Degradation Sinf (%) (BRM [1]): E (E indicates −30%-−70%)
- Median HiBiT activity 1 μM (BRM [2]): −61.1458%
- Median HiBiT activity 10 μM (BRM [2]): −67.7912%

SMILES: Nc1nnc(-c2ccccc2O)cc1N1CC2CCC(C1)N2c1ccnc(C#CCC2CCNC2)c1 (stereo not drawn) [Compound 34, 2-(6-amino-5-(8-(2-(3-(pyrrolidin-3-yl)prop-1-yn-1-yl)pyridin-4-yl)-3,8-diazabicyclo[3.2.1]octan-3-yl)pyridazin-3-yl)phenol]
- DC50 (BRM [1]): > 100 nM
- Median HiBiT activity 1 μM (BRM [2]): −7.217%
- Median HiBiT activity 10 μM (BRM [2]): −29.4355%

SMILES: Nc1nnc(-c2ccccc2O)cc1N1CC2CCC(C1)N2c1ccnc(C#CC2CCNC2)c1 (stereo not drawn) [Compound 25, 2-(6-amino-5-(8-(2-(pyrrolidin-3-ylethynyl)pyridin-4-yl)-3,8-diazabicyclo[3.2.1]octan-3-yl)pyridazin-3-yl)phenol]
- DC50 (BRG1): > 100 nM
- DC50 (BRM [1]): > 100 nM
- BRM IF Degradation Sinf (%) (BRM [1]): E (E indicates −30%-−70%)
- Median HiBiT activity 1 μM (BRM [2]): −26.7344%
- Median HiBiT activity 10 μM (BRM [2]): −55.1975%

SMILES: NCCCCCCC#Cc1cc(N2C3CCC2CN(c2cc(-c4ccccc4O)nnc2N)C3)ccn1 [Compound 11, 2-(6-amino-5-(8-(2-(8-aminooct-1-yn-1-yl)pyridin-4-yl)-3,8-diazabicyclo[3.2.1]octan-3-yl)pyridazin-3-yl)phenol]
- DC50 (BRG1): 10 to 100 nM
- Dmax (BRG1): 30 to 70%
- DC50 (BRM [1]): 10 to 100 nM
- BRM IF Degradation Sinf (%) (BRM [1]): F (F indicates −71%-−120%)
- Median HiBiT activity 1 μM (BRM [2]): −46.2503%
- Median HiBiT activity 10 μM (BRM [2]): −53.1423%

SMILES: NCC#Cc1cc(N2C3CCC2CN(c2cc(-c4ccccc4O)nnc2N)C3)ccn1 [Compound 24, 2-(6-amino-5-(8-(2-(3-aminoprop-1-yn-1-yl)pyridin-4-yl)-3,8-diazabicyclo[3.2.1]octan-3-yl)pyridazin-3-yl)phenol]
- DC50 (BRG1): > 100 nM
- DC50 (BRM [1]): 10 to 100 nM
- BRM IF Degradation Sinf (%) (BRM [1]): E (E indicates −30%-−70%)
- Median HiBiT activity 1 μM (BRM [2]): −27.1137%
- Median HiBiT activity 10 μM (BRM [2]): −43.5174%

SMILES: Nc1nnc(-c2ccccc2O)cc1N1CC2CCC(C1)N2c1ccnc(C#CCN2CCCC2)c1 [Compound 2, 2-(6-amino-5-(8-(2-(3-(pyrrolidin-1-yl)prop-1-yn-1-yl)pyridin-4-yl)-3,8-diazabicyclo[3.2.1]octan-3-yl)pyridazin-3-yl)phenol]
- DC50 (BRG1): < 10 nM
- Dmax (BRG1): 30 to 70%
- DC50 (BRM [1]): < 10 nM
- BRM IF Degradation Sinf (%) (BRM [1]): E (E indicates −30%-−70%)
- Median HiBiT activity 1 μM (BRM [2]): −73.6048%
- Median HiBiT activity 10 μM (BRM [2]): −28.0898%
